Test results: patent US12479843B2, “Spiro ring-containing quinazoline compounds” (WIGEN BIOMEDICINE TECHNOLOGY (SHANGHAI) CO., LTD., priority 2019, dated 2025)

System: H358 cells
Test: Antiproliferative activity against H358 cells (Cell Titer Glow, ultra-low attachment plate)
Format: cell-based
Settings: Homo sapiens, NCI-H358, 72 h, 96-well ultra-low attachment plate, three days after addition of compound, Cell Titer Glow
Method: 2500 H358 cells were seeded in a 96-well ultra-low attachment plate (corning, 7007). After one day of growth, a serially diluted compound (a maximum concentration of 5 μM, 5-fold dilution, a total of five doses) was added. Three days after the addition of the compound, Cell Titer Glow (Promega, G9681) was added to evaluate pellet growth, and the IC50 value was calculated.

Row | SMILES | IC50 [nM]
1 | C=CC(=O)N1CC2(CCN(c3nc(OC4CCS(=O)(=O)C(C)(C)C4)nc4c(OCC(F)(F)F)c(-c5c(C)ccc6[nH]ncc56)c(C5CC5)cc34)CC2)C1 (centres unmarked) [Compound 311] | < 300
2 | C=CC(=O)N1CC2(CCN(c3nc(N4CC[C@H](N5CCC(OC)CC5)C4)nc4c(OCC(F)(F)F)c(-c5c(C)ccc6[nH]ncc56)c(C5CC5)cc34)CC2)C1 [Compound 213] | 300 to 1000
3 | C=C(F)C(=O)N1CC2(CCN(c3nc(OC4C5CC4CN(CCOC)C5)nc4c(OCC(F)(F)F)c(-c5c(C)ccc6[nH]ncc56)c(C5CC5)cc34)CC2)C1 (centres unmarked) [Compound 120] | 300 to 1000
4 | C=C(F)C(=O)N1CC2(CCN(c3nc(O[C@H]4CCN(C)C4)nc4c(OCC(F)(F)F)c(-c5c(C)ccc6[nH]ncc56)c(C5CC5)cc34)CC2)C1 [Compound 64] | 300 to 1000
5 | C=C(F)C(=O)N1CC2(CCN(c3nc(OC4CC5(CCN(C)CC5)C4)nc4c(OCC(F)(F)F)c(-c5c(C)ccc6[nH]ncc56)c(C5CC5)cc34)CC2)C1 [Compound 130] | < 300
6 | C=CC(=O)N1CC2(CCN(c3nc(O[C@H]4CCS(=O)(=O)C[C@@H]4N(C)C)nc4c(OCC(F)(F)F)c(-c5c(C)ccc6[nH]ncc56)c(C5CC5)cc34)CC2)C1 [Compound 319] | < 300
7 | C=CC(=O)N1CC2(CCN(c3nc(N4CC5(COC5)C4)nc4c(OCC(F)(F)F)c(-c5c(C)ccc6[nH]ncc56)c(C5CC5)cc34)CC2)C1 [Compound 67] | 300 to 1000
8 | C=CC(=O)N1CC2(CCN(c3nc(N4CC[C@H](N5CC[C@H](F)C5)C4)nc4c(OCC(F)(F)F)c(-c5c(C)ccc6[nH]ncc56)c(C5CC5)cc34)CC2)C1 [Compound 191] | < 300

Further lines, results first:

Row | IC50 [nM] | SMILES
9 | < 300 | C=CC(=O)N1CC2(CCN(c3nc(N4CC[C@H](N5CCCC5)C4)nc4c(OCC(F)(F)F)c(-c5c(C)ccc6[nH]ncc56)c(C5CC5)cc34)CC2)C1 [Compound 183]
10 | < 300 | C=CC(=O)N1CC2(CCN(c3nc(N4CCN(C5CCOCC5)CC4)nc4c(OCC(F)(F)F)c(-c5c(C)ccc6[nH]ncc56)c(C5CC5)cc34)CC2)C1 [Compound 154]
11 | < 300 | C=CC(=O)N1CC2(CCN(c3nc(N4CC(N5CC(CO)C5)C4)nc4c(OCC(F)(F)F)c(-c5c(C)ccc6[nH]ncc56)c(C5CC5)cc34)CC2)C1 [Compound 243]
12 | < 300 | C=CC(=O)N1CC2(CCN(c3nc(OC4CCN(CCOC)CC4)nc4c(OCC(F)(F)F)c(-c5c(N)cccc5F)c(C5CC5)cc34)CC2)C1 [Compound 47]
13 | < 300 | C=CC(=O)N1CC2(CCN(c3nc(N4CC5(CC(N6CCC(C)C6)C5)C4)nc4c(OCC(F)(F)F)c(-c5c(C)ccc6[nH]ncc56)c(C5CC5)cc34)CC2)C1 (centres unmarked) [Compound 292]
14 | < 300 | C=CC(=O)N1CC2(CCN(c3nc(N4CC5(CCN(CC(C)CC)CC5)C4)nc4c(OCC(F)(F)F)c(-c5c(C)ccc6[nH]ncc56)c(C5CC5)cc34)CC2)C1 (centres unmarked) [Compound 81]
15 | < 300 | C=CC(=O)N1CC2(CCN(c3nc(N4CC[C@H](N5CCOCC5)C4)nc4c(OCC(F)(F)F)c(-c5c(C)ccc6[nH]ncc56)c(C5CC5)cc34)CC2)C1 [Compound 209]
16 | < 300 | C=CC(=O)N1CC2(CCN(c3nc(N4CC[C@@H](N5CCOCC5)C4)nc4c(OCC(F)(F)F)c(-c5c(C)ccc6[nH]ncc56)c(C5CC5)cc34)CC2)C1 [Compound 210]

System: pERK level in H358 cells
Test: pERK and ERK protein content assay in H358 cells (ELISA)
Format: cell-based
Settings: Homo sapiens, NCI-H358, compound 1 μM, 24 h, pERK/ERK ratio compared with DMSO group, read-out: Inhibition rate (%) of pERK level
Method: H358 cells were seeded in a 24-well plate. After one day of growth, a test compound (at a concentration of 1 μM) was added. After 24 h of action of the compound, the cells were lysed, and the cell lysate was transferred to a 96-well ELISA plate. The levels of pERK and ERK in the lysate were measured using an ELISA kit (abcam 176660). The ratio of pERK to ERK was calculated and compared with that of the DMSO group, and the percentage of inhibition of pERK activity by the compound was calculated.

Row | SMILES | inhibition at 1 µM [%]
17 | C=CC(=O)N1CC2(CCN(c3nc(N4CC[C@H](N5CCCC5)C4)nc4c(OCC(F)(F)F)c(-c5c(C)ccc6[nH]ncc56)c(C5CC5)cc34)CC2)C1 [Compound 183] | > 90
18 | C=CC(=O)N1CC2(CCN(c3nc(N4CCN(C5CCOCC5)CC4)nc4c(OCC(F)(F)F)c(-c5c(C)ccc6[nH]ncc56)c(C5CC5)cc34)CC2)C1 [Compound 154] | > 90
19 | C=CC(=O)N1CC2(CCN(c3nc(N4CC(N5CC(CO)C5)C4)nc4c(OCC(F)(F)F)c(-c5c(C)ccc6[nH]ncc56)c(C5CC5)cc34)CC2)C1 [Compound 243] | > 90
20 | C=CC(=O)N1CC2(CCN(c3nc(OC4CCN(CCOC)CC4)nc4c(OCC(F)(F)F)c(-c5c(N)cccc5F)c(C5CC5)cc34)CC2)C1 [Compound 47] | > 90
21 | C=CC(=O)N1CC2(CCN(c3nc(N4CC5(CC(N6CCC(C)C6)C5)C4)nc4c(OCC(F)(F)F)c(-c5c(C)ccc6[nH]ncc56)c(C5CC5)cc34)CC2)C1 (centres unmarked) [Compound 292] | > 90
22 | C=CC(=O)N1CC2(CCN(c3nc(N4CC5(CCN(CC(C)CC)CC5)C4)nc4c(OCC(F)(F)F)c(-c5c(C)ccc6[nH]ncc56)c(C5CC5)cc34)CC2)C1 (centres unmarked) [Compound 81] | > 90
23 | C=CC(=O)N1CC2(CCN(c3nc(N4CC[C@H](N5CCOCC5)C4)nc4c(OCC(F)(F)F)c(-c5c(C)ccc6[nH]ncc56)c(C5CC5)cc34)CC2)C1 [Compound 209] | > 90
24 | C=CC(=O)N1CC2(CCN(c3nc(N4CC[C@@H](N5CCOCC5)C4)nc4c(OCC(F)(F)F)c(-c5c(C)ccc6[nH]ncc56)c(C5CC5)cc34)CC2)C1 [Compound 210] | > 90
25 | C=CC(=O)N1CC2(CCN(c3nc(OC4CCS(=O)(=O)C(C)(C)C4)nc4c(OCC(F)(F)F)c(-c5c(C)ccc6[nH]ncc56)c(C5CC5)cc34)CC2)C1 (centres unmarked) [Compound 311] | > 90
26 | C=CC(=O)N1CC2(CCN(c3nc(N4CC[C@H](N5CCC(OC)CC5)C4)nc4c(OCC(F)(F)F)c(-c5c(C)ccc6[nH]ncc56)c(C5CC5)cc34)CC2)C1 [Compound 213] | 50 to 90
27 | C=C(F)C(=O)N1CC2(CCN(c3nc(OC4C5CC4CN(CCOC)C5)nc4c(OCC(F)(F)F)c(-c5c(C)ccc6[nH]ncc56)c(C5CC5)cc34)CC2)C1 (centres unmarked) [Compound 120] | 50 to 90
28 | C=C(F)C(=O)N1CC2(CCN(c3nc(O[C@H]4CCN(C)C4)nc4c(OCC(F)(F)F)c(-c5c(C)ccc6[nH]ncc56)c(C5CC5)cc34)CC2)C1 [Compound 64] | 50 to 90
29 | C=C(F)C(=O)N1CC2(CCN(c3nc(OC4CC5(CCN(C)CC5)C4)nc4c(OCC(F)(F)F)c(-c5c(C)ccc6[nH]ncc56)c(C5CC5)cc34)CC2)C1 [Compound 130] | > 90
30 | C=CC(=O)N1CC2(CCN(c3nc(O[C@H]4CCS(=O)(=O)C[C@@H]4N(C)C)nc4c(OCC(F)(F)F)c(-c5c(C)ccc6[nH]ncc56)c(C5CC5)cc34)CC2)C1 [Compound 319] | > 90
31 | C=CC(=O)N1CC2(CCN(c3nc(N4CC5(COC5)C4)nc4c(OCC(F)(F)F)c(-c5c(C)ccc6[nH]ncc56)c(C5CC5)cc34)CC2)C1 [Compound 67] | 50 to 90
32 | C=CC(=O)N1CC2(CCN(c3nc(N4CC[C@H](N5CC[C@H](F)C5)C4)nc4c(OCC(F)(F)F)c(-c5c(C)ccc6[nH]ncc56)c(C5CC5)cc34)CC2)C1 [Compound 191] | > 90
